Among the test systems are SR; NCI/ADR-RES; T47D; DU-145; UACC-257; CAKI-1; Hs-578T; MDA-MB-435; MDA-N; PC-3; OVCAR-4; EKVX; 786-0; HCT-116; DLD-1; DMS-273; M19-MEL; LXFL 529; KM-20L2; XF498.
What all share (test): growth of human tumour cells (NCI), 48 h

This is an account of results in ChEMBL document CHEMBL1201862, “PubChem BioAssay data set” (2004).

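How tested: cells in 96-well plates exposed to compound for 48 hours at five concentrations. GI50 is the concentration that inhibits growth by half.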 The source made the active and inactive calls. Cut-off read from the data, not from the text of the source: active = GI50 up to about 1.1 µM and inactive = higher. A value given as a limit tells only on which side of the number the result lay.

As to `COc1ccc([C@H]2C=[N+]([O-])O[C@H](OC3CCCC3)[C@@H]2OC(C)=O)cc1OC`, the GI50 was 41.8 µM (inactive) in the assay on SR; 31.8 µM (inactive) with NCI/ADR-RES; 16.1 µM (inactive) with T47D; 29.3 µM (inactive) in the assay on DU-145; 19.7 µM (inactive) in the assay with UACC-257; 14 µM (inactive) with CAKI-1. For the same compound, the GI50 with Hs-578T was 29.9 µM (inactive); with MDA-MB-435 it was 25.4 µM (inactive); in the assay on MDA-N, 37.8 µM (inactive); in the assay with PC-3 it was 44.8 µM (inactive); with OVCAR-4 it was 33.6 µM (inactive); in the assay on EKVX, 22.3 µM (inactive).
In the case of `Clc1ccc2c(c1)CC1C[N+]3=C(CCCCC3)C1=C2` (stereo not given), the GI50 in the assay on NCI/ADR-RES was > 100 µM (inactive); in the assay with T47D, 29.6 µM (inactive); in the assay on DU-145 it was > 100 µM (inactive); in the assay with UACC-257, 28.8 µM (inactive); in the assay on CAKI-1, > 100 µM (inactive); in the assay with Hs-578T it was 85.3 µM (inactive). The GI50 in the assay with MDA-MB-435 is 59.2 µM (inactive); in the assay with MDA-N, 94.2 µM (inactive); in the assay on PC-3 it was 42.1 µM (inactive); in the assay on 786-0, > 100 µM (inactive); with OVCAR-4, 54.8 µM (inactive); with EKVX it was 45.6 µM (inactive). The GI50 in the assay on HCT-116 is > 100 µM (inactive).
As for `CCOC(=O)CC(NC(=O)c1ccc(/N=N/N(C)C)cc1)C(=O)OCC` (stereo not given), the GI50 with SR, with DLD-1, in the assay on UACC-257, with CAKI-1, in the assay on DMS-273 and in the assay with M19-MEL was > 100 µM (inactive) in each case. In addition, the GI50 in the assay on 786-0, with OVCAR-4, in the assay with EKVX, with LXFL 529 and with HCT-116 was > 100 µM (inactive) throughout.
Take `O=C1NC2(CCCCC2)C2CCCCCC12` (stereo not given): the GI50 in the assay with SR, with DLD-1, in the assay on KM-20L2, in the assay on XF498, in the assay with UACC-257 and with OVCAR-4 was > 100 µM (inactive) in each case. The GI50 in the assay with EKVX, with LXFL 529 and with HCT-116 was > 100 µM (inactive) each time.
Consider `CCOC(=O)NC(=O)c1cn(CCSCCOC(=O)NCCCCCCNC(=O)OCCSCCn2cc(C(=O)NC(=O)OCC)c(=O)[nH]c2=O)c(=O)[nH]c1=O`, for which the GI50 in the assay with DLD-1, in the assay with KM-20L2, in the assay with UACC-257, with CAKI-1, in the assay on DMS-273 and in the assay on M19-MEL was > 100 µM (inactive) in each case. Also, the GI50 in the assay on OVCAR-4, in the assay with EKVX and in the assay on HCT-116 was > 100 µM (inactive) in each case.
With `CCOC(=O)CNC(=O)C(CCC(=O)N(C)O)NC(=O)CCC(N)C(=O)O` (stereo not given), the GI50 in the assay with NCI/ADR-RES, in the assay with T47D, in the assay with DU-145, in the assay on UACC-257, in the assay with CAKI-1 and in the assay on Hs-578T was > 100 µM (inactive) each time. The GI50 in the assay with MDA-MB-435, with MDA-N, in the assay on PC-3, with 786-0, in the assay on OVCAR-4 and in the assay on EKVX was > 100 µM (inactive) throughout. Further, the GI50 with HCT-116 is > 100 µM (inactive).
As to `Cc1c(Cl)cccc1NC(=O)/C=C/c1ccccc1`, the GI50 in the assay with SR was 50.7 µM (inactive); in the assay on T47D, > 100 µM (inactive); in the assay on DU-145 it was > 100 µM (inactive); in the assay with UACC-257, > 100 µM (inactive); in the assay on CAKI-1 it was 16.3 µM (inactive); in the assay with Hs-578T, 38.3 µM (inactive). Moreover, the GI50 in the assay on MDA-MB-435 is > 100 µM (inactive); with MDA-N it was > 100 µM (inactive); in the assay with PC-3 it was > 100 µM (inactive); in the assay on 786-0 it was 62.7 µM (inactive); in the assay on OVCAR-4, > 100 µM (inactive); with EKVX, 55.8 µM (inactive). Further, the GI50 in the assay on HCT-116 is > 100 µM (inactive).
`CSC1NC(c2ccccc2)=C(C#N)C(=O)N1C1OCC(OC(C)=O)C(OC(C)=O)C1OC(C)=O` (stereo not given): the GI50 with SR, in the assay with NCI/ADR-RES, in the assay on DU-145, with UACC-257, in the assay with CAKI-1 and in the assay with Hs-578T was > 100 µM (inactive) in each case. Further, the GI50 with MDA-MB-435, in the assay with MDA-N, in the assay with PC-3, in the assay with 786-0, in the assay with OVCAR-4 and in the assay with EKVX was > 100 µM (inactive) in each case. Moreover, the GI50 in the assay on HCT-116 is 47.9 µM (inactive).
For `O=C(O)CCC(NC(=O)c1ccc(Nc2nc3cc(C(F)(F)F)ccc3nc2C(=O)O)cc1)C(=O)O` (stereo not given), the GI50 is > 100 µM (inactive) in the assay on SR; > 100 µM (inactive) in the assay with NCI/ADR-RES; 48.3 µM (inactive) in the assay with T47D; > 100 µM (inactive) in the assay with DU-145; > 100 µM (inactive) in the assay with UACC-257; > 100 µM (inactive) with Hs-578T. Also, the GI50 in the assay on MDA-MB-435, in the assay on MDA-N, in the assay with PC-3, with 786-0, in the assay on EKVX and in the assay with HCT-116 was > 100 µM (inactive) each time.
Consider `O=C(NNC(=S)NCc1ccccc1)C12CC3CC(CC(C3)C1)C2`, for which the GI50 with SR was 9.33 µM (inactive); in the assay on NCI/ADR-RES, 89.1 µM (inactive); in the assay with T47D, 49.2 µM (inactive); in the assay with DU-145, 85.9 µM (inactive); in the assay with UACC-257, 52.5 µM (inactive); in the assay with Hs-578T it was > 100 µM (inactive). Besides, the GI50 is 87.3 µM (inactive) in the assay with MDA-MB-435; 67.9 µM (inactive) in the assay on MDA-N; 25.8 µM (inactive) with PC-3; 96.8 µM (inactive) in the assay with 786-0; 76.6 µM (inactive) with OVCAR-4; 34.5 µM (inactive) in the assay with HCT-116.
For the compound `COc1cc2c(cc1OC)C(Cl)C(c1cc(OC)c(OC)c(OC)c1)=C2Cl` (stereo not given), the GI50 in the assay with DLD-1 was 19.4 µM (inactive); in the assay with KM-20L2, 17.9 µM (inactive); in the assay on CAKI-1, 9.1 µM (inactive); in the assay with DMS-273, 16.5 µM (inactive); with M19-MEL it was 14.8 µM (inactive); in the assay with EKVX, 19.1 µM (inactive). In addition, the GI50 in the assay with LXFL 529 was 11.5 µM (inactive).
Take `CCOC(=O)c1nc2cc(C(F)(F)F)ccc2nc1Oc1ccc(F)cc1`: the GI50 with SR is > 100 µM (inactive); in the assay on NCI/ADR-RES, > 100 µM (inactive); with T47D it was 5.9 µM (inactive); in the assay with DU-145, > 100 µM (inactive); in the assay with UACC-257, > 100 µM (inactive); in the assay with CAKI-1, > 100 µM (inactive). Moreover, the GI50 was > 100 µM (inactive) in the assay with Hs-578T; > 100 µM (inactive) in the assay on MDA-MB-435; > 100 µM (inactive) with MDA-N; > 100 µM (inactive) in the assay on PC-3; > 100 µM (inactive) in the assay on 786-0; 69.5 µM (inactive) in the assay with OVCAR-4. Also, the GI50 with EKVX was > 100 µM (inactive); with HCT-116, 4.49 µM (inactive).
Consider `CCOC(=O)c1csc(NC(=O)CCCC#N)n1`, for which the GI50 in the assay on SR, with NCI/ADR-RES, in the assay on T47D, with DU-145, in the assay with UACC-257 and with CAKI-1 was > 100 µM (inactive) in each case. Also, the GI50 with Hs-578T, in the assay with MDA-MB-435, in the assay on MDA-N, in the assay on PC-3 and in the assay on OVCAR-4 was > 100 µM (inactive) in each case.
For `Cc1ccc([N+](=O)[O-])cc1/N=N/C(=O)NNc1cc([N+](=O)[O-])ccc1C`, the GI50 in the assay on SR was 52.8 µM (inactive); in the assay with NCI/ADR-RES, 27.9 µM (inactive); in the assay with T47D, 31.3 µM (inactive); with DU-145, 35.3 µM (inactive); in the assay with CAKI-1 it was 25.9 µM (inactive); in the assay on Hs-578T it was 26.4 µM (inactive). Moreover, the GI50 in the assay with MDA-MB-435 is 22.2 µM (inactive); in the assay with MDA-N, 26.6 µM (inactive); in the assay with PC-3 it was 17.6 µM (inactive); with HCT-116, 17.7 µM (inactive).
For the compound `O=C1CN(c2ccccc2)C(=O)C1C(=O)Nc1ccc(Cl)c(Cl)c1` (stereo not given), the GI50 with SR is 0.581 µM (active); in the assay on DLD-1 it was 5.08 µM (inactive); with KM-20L2, 4.41 µM (inactive); in the assay on UACC-257, 8.28 µM (inactive); in the assay on DMS-273, 3.1 µM (inactive); in the assay on M19-MEL, 1.77 µM (inactive). Also, the results for the GI50 in the assay with OVCAR-4 and in the assay with LXFL 529 were 11.7 µM (inactive) and 1.65 µM (inactive), respectively.
Consider `COc1ccc2c(C)cc(N/N=C/c3sccc3C)nc2c1`, for which the GI50 was 22.9 µM (inactive) in the assay on SR; 10 µM (inactive) with NCI/ADR-RES; 7.76 µM (inactive) in the assay on T47D; 6.68 µM (inactive) in the assay with DU-145; 10.1 µM (inactive) with UACC-257; 12.5 µM (inactive) with Hs-578T. Also, the GI50 in the assay on MDA-MB-435 was 16.6 µM (inactive); with MDA-N it was 14.3 µM (inactive); in the assay on PC-3 it was 12.9 µM (inactive); in the assay on OVCAR-4, 20.9 µM (inactive); in the assay on EKVX it was > 10 µM (inactive); with HCT-116 it was 4.08 µM (inactive).
Regarding `CO/C(=N/N1CC1C(F)(F)F)c1ccncc1` (stereo not given), the GI50 in the assay on SR, in the assay on NCI/ADR-RES, in the assay on T47D, in the assay on DU-145, in the assay on CAKI-1 and in the assay with Hs-578T was > 100 µM (inactive) throughout. The GI50 is > 100 µM (inactive) in the assay with MDA-MB-435; > 100 µM (inactive) with MDA-N; > 10 µM (inactive) with PC-3; > 100 µM (inactive) in the assay on OVCAR-4; > 100 µM (inactive) with HCT-116.
